Measurements taken from patent US20040030131A1, “Pharmaceutical compounds” (priority 2000, published 2004).

SMILES	melting point
CNCC1=C(c2ccc3scc(C)c3c2)C2CCC(C1)C2.Cl (stereo not shown)	204.5 to 206.7 °C
CN(C)CC1=C(c2cc3cc(F)ccc3s2)C2CCC(C1)C2.Cl (racemic)	207.4 to 211.1 °C
CN(C)CC1=C(c2ccc3sccc3c2)C2CCC(C1)C2.Cl (stereo not shown)	57.8 °C
CN(C)CC1=C(c2cccc3sccc23)C2CCC1C2 (racemic) [Example 15, (+/−)-((3-(Benzo[b]thiophen-4-yl)bicyclo[2.2.1]-hept-2-en-2-yl)methyl)dimethylamine]	73.5 to 76.9 °C
Cc1cc2cc(C3=C(CN(C)C)C4CCC3C4)ccc2s1.Cl (racemic)	179.5 to 181.6 °C

More lines, now with the values ahead:

melting point	SMILES
239 to 242 °C	COc1cccc2sc(C3=C(CN(C)C)C4CCC3C4)cc12.Cl (racemic)
232 to 235 °C	COc1cccc2cc(C3=C(CN(C)C)C4CCC3C4)sc12.Cl (racemic)
